{"source": "paper PMC8097421", "about": "(Antimicrobial Agents and Chemotherapy, 2021)", "key": {"[1]": {"conditions": "human, in vivo"}, "in vivo [2]": {"assay": "in vivo", "conditions": "male, cynomolgus, cynomolgus monkey, po, 30 mg/kg"}, "clinical": {"assay": "clinical", "conditions": "human, in vivo"}, "[3]": {"assay": "Clinical observation of nonhuman primates in the PK study", "format": "in vivo, cynomolgus monkey", "conditions": "NHP, oral AT-527 60 mg/kg loading then 30 mg/kg every 12 h"}, "[4]": {"assay": "Estimated oral bioavailability", "conditions": "in vivo, species and source not stated"}, "[5]": {"parameters": "method as in doi:10.1016/S0168-8278(20)31210-1", "conditions": "HCV-infected subjects, daily oral 550 mg with daclatasvir for up to 12 weeks; cited from earlier work"}, "[6]": {"assay": "Steady-state plasma pharmacokinetics in nonhuman primates after oral AT-527", "conditions": "NHP plasma, oral AT-527 60 mg/kg loading then 30 mg/kg every 12 h"}, "[7]": {"test_system": "MRC-5 (human lung fibroblast) cells", "conditions": "8 h, 10 µM"}, "Huh-7 cells": {"test_system": "Huh-7 cells", "conditions": "human, 8 h, 10 µM"}, "[8]": {"test_system": "human bronchial epithelial (HBE) cells", "conditions": "10 µM"}, "[9]": {"conditions": "male, cynomolgus monkey, in vivo"}, "NiRAN domain of nsp12": {"test_system": "NiRAN domain of nsp12", "parameters": "method as in our unpublished data", "conditions": "ref our unpublished data; cited from earlier work"}, "in vivo [10]": {"assay": "in vivo", "conditions": "male, cynomolgus monkey; for half-life: po, 30 mg/kg"}, "in vitro [11]": {"assay": "in vitro", "conditions": "human, intracellular half-life (t1/2) of AT-9010"}, "in vitro [12]": {"assay": "in vitro", "conditions": "human, intracellular half-life (t1/2) of AT-9010", "remark": "listed apart in the source"}, "[13]": {"test_system": "primary human hepatocytes", "conditions": "cited from earlier work"}, "primary NHP hepatocytes": {"test_system": "primary NHP hepatocytes", "conditions": "cited from earlier work"}, "[14]": {"test_system": "SARS-CoV-2 (USA-WA1/2020)", "assay": "microbe, parasite or virus in culture", "format": "cell-based, SARS-CoV-2 (Betacoronavirus)", "conditions": "SARS-CoV-2, HAE cells"}, "in vitro [15]": {"assay": "in vitro", "conditions": "human"}, "HCoV-229E": {"test_system": "HCoV-229E", "assay": "CPE assay, HCoV-229E in BHK-21 cells", "format": "cell-based, HCoV-229E (Alphacoronavirus)", "conditions": "Human coronavirus 229E, 72 h, 3-day incubation, MOI 0.01", "protocol": "(§1) To assess whether AT-511, a 2′-fluoro-2′-methyl guanosine nucleotide prodrug (Fig. 1), had antiviral activity against a seasonal human alpha coronavirus, HCoV-229E, BHK-21 (baby hamster kidney) cells were acutely infected with the virus and exposed to serial dilutions of the drug. […] Half-maximal cytotoxicity (CC50) measured by neutral red staining of compound-treated cells in the absence of virus indicated little to no toxicity was detected from either drug up to 100 μM.\n(§2) AT-511 and sofosbuvir were dissolved in DMSO at 100 mM and then diluted in growth medium to final concentrations of 100, 20, 4, and 0.8 μM (two […] replicate plates each). After BHK-21 cells were grown to confluence in 96-well plates, growth medium was replaced with fresh maintenance medium (growth medium with 1% inactivated FBS in place of 10% FBS) containing serially diluted test compound and HCoV-229E at a multiplicity of infection (MOI) of 0.01. Uninfected cells in the presence of serially diluted compound were used to assess the cytotoxicity of compounds. After a 3-day incubation at 37°C in a humidified 5% CO2 atmosphere, cell viability was determined by the 3-(4,5-dimethyl-2-thiazolyl)-2,5-diphenyl-2H-tetrazolium bromide (MTT) method ([22]). […]"}, "[16]": {"assay": "Cytotoxicity in uninfected BHK-21 cells", "format": "cell-based", "conditions": "hamster, 3-day incubation, read-out: CPE assay CC50", "protocol": "as §1, §2"}}, "note": "Marks after values point to notes of the source that are not given here.", "data": [{"smiles": "C[C@@]1(F)[C@H](O)[C@@H](CO)O[C@H]1n1cnc2c(=O)[nH]c(N)nc21", "note": "[AT-273]", "values": [{"measurement": "absorption constant (Ka), population estimate", "setting": "[1]", "result": "0.45 (±0.00253) h^−1"}, {"measurement": "volume of central compartment (V1), population estimate", "setting": "[1]", "result": "2,070 (±146) liters"}, {"measurement": "volume of peripheral compartment (V2), population estimate", "setting": "[1]", "result": "1,270 (±164) liters"}, {"measurement": "AUC(0-t)", "setting": "in vivo [2]", "result": "1.56 ± 0.18", "unit": "µM·h"}, {"measurement": "half-life", "setting": "in vivo [2]", "result": 16, "unit": "h"}, {"measurement": "clearance", "setting": "clinical", "result": 3130, "unit": "mL/min"}]}, {"smiles": "CNc1nc(N)nc2c1ncn2C1OC(COP(=O)(NC(C)C(=O)OC(C)C)Oc2ccccc2)C(O)C1(C)F", "note": "(stereo not shown) [AT-527]", "values": [{"measurement": "unusual or adverse clinical signs", "setting": "[3]", "result": "no such signs noted"}, {"measurement": "bioavailability", "setting": "[4]", "result": "≥ 50", "unit": "%"}, {"measurement": "safety and tolerability", "setting": "[5]", "result": "safe and well tolerated"}]}, {"smiles": "CNc1nc(N)nc2c1ncn2[C@@H]1O[C@H](CO[P@](=O)(O)N[C@@H](C)C(=O)O)[C@@H](O)[C@@]1(C)F", "note": "[AT-551]", "values": [{"measurement": "Tmax", "setting": "in vivo [2]", "result": "1 to 4", "unit": "h"}, {"measurement": "AUC0–12", "setting": "[6]", "result": "4.35 ± 1.77", "unit": "µM·h"}]}, {"smiles": "C[C@@]1(F)[C@H](O)[C@@H](COP(=O)(O)OP(=O)(O)OP(=O)(O)O)O[C@H]1n1cnc2c(=O)[nH]c(N)nc21", "note": "[AT-9010]", "values": [{"measurement": "AT-9010 formed", "setting": "[7]", "result": "26.5 ± 0.5", "unit": "pmol/10^6 cells"}, {"measurement": "AT-9010 formed", "setting": "Huh-7 cells", "result": "182 ± 6", "unit": "pmol/10^6 cells"}, {"measurement": "in vitro t1/2 of the TP, fold longer than in hepatocytes", "setting": "[8]", "result": 4}, {"measurement": "AT-9010 lung-to-liver concentration ratio", "setting": "[9]; 12 h", "result": 1.6}, {"measurement": "AT-9010 in liver samples at 48-h postdose", "setting": "[9]; 48 h", "result": "no peak corresponding to AT-9010 was detected"}, {"measurement": "inhibition of NiRAN", "setting": "NiRAN domain of nsp12", "result": "potent inhibitor"}, {"measurement": "concentration at 12 h", "setting": "in vivo [10]; AT-9010 concentration in kidney", "result": "130 ± 40", "unit": "nM"}, {"measurement": "concentration at 12 h", "setting": "in vivo [10]; AT-9010 concentration in liver tissue", "result": "90 ± 30", "unit": "nM"}, {"measurement": "concentration at 12 h", "setting": "in vivo [10]; AT-9010 concentration in lung tissue", "result": "140 ± 110", "unit": "nM"}, {"measurement": "half-life", "setting": "in vivo [10]; estimated half-life of AT-9010 in kidney tissue", "result": 8.5, "unit": "h"}, {"measurement": "half-life", "setting": "in vivo [10]; estimated half-life of AT-9010 in lung tissue", "result": 9.4, "unit": "h"}, {"measurement": "half-life at 10 µM", "setting": "in vitro [11]", "result": "38 to 39", "unit": "h"}, {"measurement": "half-life at 10 µM", "setting": "in vitro [12]", "result": "38 to 39", "unit": "h"}, {"measurement": "in vitro t1/2 of AT-9010", "setting": "[13]", "result": 10, "unit": "h"}, {"measurement": "in vitro t1/2 of AT-9010", "setting": "primary NHP hepatocytes", "result": 10, "unit": "h"}]}, {"smiles": "CC(C)C(=O)OC[C@H]1O[C@@H](n2ccc(NO)nc2=O)[C@H](O)[C@@H]1O", "note": "[Molnupiravir]", "values": [{"measurement": "Selectivity index (CC50/EC90)", "setting": "[14]; CC50/EC90", "result": ">4.9^c"}, {"measurement": "EC90", "setting": "[14]; Severe acute respiratory syndrome coronavirus 2, 120 h, 5-day incubation, read-out: VYR assay EC90", "result": "2.8 ± 1", "unit": "µM"}, {"measurement": "CC50 at 5 days", "setting": "in vitro [15]", "result": "> 19", "unit": "µM"}]}, {"smiles": "CC(C)OC(=O)[C@H](C)N[P@](=O)(OC[C@H]1O[C@@H](n2ccc(=O)[nH]c2=O)[C@](C)(F)[C@@H]1O)Oc1ccccc1", "note": "[Sofosbuvir]", "values": [{"measurement": "EC50", "setting": "HCoV-229E", "result": "> 100", "unit": "µM"}, {"measurement": "CC50 at 3 days", "setting": "[16]", "result": "> 100", "unit": "µM"}]}]}
